Data reported in patent publication US5439899A, “Cosalane and related compounds having activity against aids and aids-related infections” (priority 1993, dated 1995).
“Also recorded” adds a separate entry of the source.

Experiments:
HIV [1] = experiment: NCI in vitro anti-HIV screen (XTT soluble-formazan assay, protection of HIV-infected CEM cells); format: cell-based; settings: for anti-HIV effect (statement): NCI anti-HIV screen, in vitro, CEM cells
Excerpt: The National Cancer Institute's procedure for testing for agents active against Human Immunodeficiency Virus (HIV) (Weislow, O. W. et al, "New soluble-formazan assay for HIV-1 cytopathic effects: application to high-flux screening of synthetic and natural products for AIDS-antiviral activity," J. Natl. Cancer Inst., 81, 577-586, 1989) is designed to detect agents acting at any stage of the virus reproductive cycle. The assay includes the killing of T4 lymphocytes by HIV. Pursuant to the test, small amounts of HIV are added to cells, and a complete cycle of virus reproduction is necessary to obtain the required cell killing. Agents that interact with virions, cells, or virus gene-products to interfere with viral activities will protect cells from cytolysis. The system is thus designed to detect anti-HIV activity. However, compounds that degenerate or are rapidly metabolized in the culture conditions may not show activity in this screen. All tests are compared with at least one positive (e.g., AZT-treated) control done at the same time under identical conditions.
(§1) 1. The candidate agent is dissolved in dimethyl sulfoxide (unless otherwise instructed), then diluted 1:200 in cell culture medium. Further dilutions (half-log10) are prepared before adding to 96-well microtiter plates.
(§2) 2. T4 lymphocytes (CEM cell line) are exposed to HIV at a virus-to-cell ratio of approximately 0.05 and are plated along with non-infected control cells into drug-containing wells or wells with medium alone.
(§3) 3. Cultures are incubated at 37° in a 5% carbon dioxide atmosphere for 6 days.
(§4) 4. The tetrazolium salt, XTT, is added to all wells, and cultures are incubated to allow formazan color development by viable cells.
(§5) 5. […] are analyzed spectrophotometrically to quantitate formazan production and, in addition, are viewed microscopically for detection of viable cells and confirmation of protective activity.
(§6) 6. Drug-treated virus-infected cells are compared with drug-treated non-infected cells and with other appropriate controls (untreated infected and untreated non-infected cells, drug-containing wells without cells, etc.) on the same plate.
(§7) 7. Data are reviewed in comparison with other tests performed at the same time, and a determination about activity is made.
Approximate values for 50% effective concentration (EC50) (protection in infected cells), 50% inhibitory concentration (IC50) and the therapeutic index (IC50 /EC50) have been calculated for each test and are provided in the tables of each Example.
Examples 1, 6 and 8 compounds, respectively, against the measured test values expressed as a percentage of the uninfected, untreated control values. The solid line depicts the percentage of surviving HIV-infected cells treated with sample (at the indicated concentration) relative to uninfected, untreated controls. The solid line expresses the in vitro anti-HIV activity of the compound of the tested compound. The dashed line depicts the percentage of surviving uninfected cells treated with the compound of the Example relative to the same uninfected, untreated controls. The dashed line expresses the in vitro growth inhibitory properties of the compound of the Example. The viral cytopathic effect of a compound of each Example is indicated by a combination of dashes and dots. […] Survival values of this parameter less then 50% are considered acceptable in the current protocol.

[2] = system: T4 lymphocytes (CEM cell line); experiment: NCI in vitro anti-HIV screen, growth inhibition of uninfected CEM cells (XTT); format: cell-based; settings: Homo sapiens, CCRF-CEM, 144 h, read-out: IC50 (50% inhibitory concentration)
Method: The assay includes the killing of T4 lymphocytes by HIV. Pursuant to the test, small amounts of HIV are added to cells, and a complete cycle of virus reproduction is necessary to obtain the required cell killing. Agents that interact with virions, cells, or virus gene-products to interfere with viral activities will protect cells from cytolysis. The system is thus designed to detect anti-HIV activity. However, compounds that degenerate or are rapidly metabolized in the culture conditions may not show activity in this screen. All tests are compared with at least one positive (e.g., AZT-treated) control done at the same time under identical conditions.
as §1, §2, §3, §4, §5, §6, §7
Survival values of this parameter less then 50% are considered acceptable in the current protocol.

HIV [3] = experiment: in vitro testing for infectious particles; format: cell-based
HIV-1 p24 = experiment: p24 antigen-capture assay; format: cell-based; settings: in vitro
Method: (§8) Activity was also examined by determination of p24 and reverse transcriptase concentrations.
To determine p24, a p24 antigen-capture assay was used. Culture fluids harvested from drug test plates or other sources were diluted 1:100 in 10% triton X-100 and stored frozen at -70° C. 200 μL aliquots of the triton treated samples were added in duplicate to microtiter wells previously coated with rabbit polyclonal anti-HIV-1 p24 serum and incubated at room temperature overnight. After washing and blotting, 100 μL of biotinylated polyclonal anti-HIV p-24 was added to each of the appropriate wells, and the plates were re-incubated at 37° C. for 60 minutes. A solution of streptavidin-horseradish peroxidase was added after additional washing and blotting. The contents of each plate were mixed and reincubated for 15 minutes at room temperature and, after washing and blotting, the o-phenylenediamine dihydrochloride substrate was added in 100 μL aliquots. Color was allowed to develop in the dark room at room temperature for 30 minutes, and the reaction was halted by the addition of 4 N H2 SO4. Optical density was measured at 490 nm, and the concentration of p24 was determined by comparison with a standard curve of known concentrations of p24. Eislow, O., et al., J. Nat'l Cancer Inst., 81 (8):577-86 (1989).

reverse transcriptase = reverse transcriptase assay of cell-free supernatant; format: cell-based, HIV; settings: in vitro
Method: as §8
Reverse transcriptase assays were performed according to the method of Hoffman et al, Virology, 147, 326-335 (1985), with minor modifications. Briefly, 15 µl of cell-free supernatant was mixed with 10 μl of RT reaction buffer. The total 25 μl reaction mixture consisted of 2.5 μCi of tritated thymidine triphosphate (TTP) (ICN, 80 Ci/mmol), poly rA (50 ng/ml):oligo dT (10 ng/ml) template:primer (Pharmacia), 10 mM Tris, pH 7.6, 8 mM magnesium chloride, 10 mM dithiothreitol (DTT), and, in the standard reaction, 0.5% Triton X-100. Assays were performed in the absence of added EGTA unless indicated. When EGTA (Sigma) was added it was at a concentration of 1 mM. The reactions were incubated for 60 minutes at 37° C. The reaction volume was then spotted onto DE81 chromatography paper (Whatman), washed extensively in 5% dibasic sodium phosphate, and counted for incorporated radioactivity in a toluene-based scintillation cocktail. Assays were also performed to measure the presence of a nuclease activity associated with HIV virions. […] The HIV virion sample was added to the AMV RT reaction product and the amount of radioactivity able to bind to DE81 paper was monitored after varying times of incubation at 37° C. […]

Structure (SMILES): CC(C)CCC[C@@H](C)[C@H]1CC[C@H]2[C@@H]3CC[C@H]4C[C@@H](CCC=C(c5cc(Cl)c(O)c(C(=O)O)c5)c5cc(Cl)c(O)c(C(=O)O)c5)CC[C@]4(C)[C@H]3CC[C@]12C [Formula IV, 1,1-di(3'-ammoniumcarboxy-5'-chloro-4'-hydroxy)phenyl-4-(3β)-cholestanyl-1-butene]
- anti-HIV effect (statement) (HIV [1]): greatest effect on inhibiting HIV-infected cells, while having a lesser effect on uninfected cells
- anti-HIV effect (statement) (HIV [1]; listed as Cosalane): highly effective anti-HIV agent in vitro; also recorded: most effective compounds studied in terms of prevention of the cytopathic effect of HIV in CEM lymphocytes
- EC50 (HIV [1]; read-out: EC50 (50% effective concentration, protection in infected cells), HIV-infected CEM cells, 6 days, XTT, approximate values, one value per run): 6.7 µM
- IC50 [2]: > 310 µM
- infectious particles (FIG. 2) (HIV [3]): indicating anti-HIV activity
- p24 (FIG. 3) (HIV-1 p24): indicating anti-HIV activity
- reverse transcriptase activity (FIG. 4) (reverse transcriptase): indicating anti-HIV activity
